Target: PAICS (Homo sapiens, UniProt P22234)
Conditions: can reach; biochemical enzyme activity and cell biology experiments

Chain of PAICS (P22234 whole entry): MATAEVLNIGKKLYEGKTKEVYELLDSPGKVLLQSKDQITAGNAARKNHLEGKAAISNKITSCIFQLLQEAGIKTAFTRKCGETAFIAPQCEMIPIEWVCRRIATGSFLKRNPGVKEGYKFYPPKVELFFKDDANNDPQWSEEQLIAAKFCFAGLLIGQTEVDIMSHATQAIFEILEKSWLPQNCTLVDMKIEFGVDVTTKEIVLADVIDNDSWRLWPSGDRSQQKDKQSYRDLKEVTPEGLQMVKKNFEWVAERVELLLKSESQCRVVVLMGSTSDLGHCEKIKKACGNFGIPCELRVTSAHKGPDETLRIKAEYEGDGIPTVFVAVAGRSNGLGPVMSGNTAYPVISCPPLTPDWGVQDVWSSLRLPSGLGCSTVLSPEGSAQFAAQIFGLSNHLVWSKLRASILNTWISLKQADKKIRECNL

NCCCNCCCCNCCCN [spermine, Spermine]
inhibition ratio against SAICAR accumulation: 71.1%

Source: patent US10709676B2 (GENEHEAL BIOTECHNOLOGY CO., LTD., priority 2016, dated 2020)
